Laboratory results from PubChem BioAssay (NCI).
“And” between values parts separate entries of the source, which are not always exact repeats. Identical values can stand only once.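 Cultured in 96-well plates, cells were exposed to test compound for 48 hours across five concentrations. At the GI50, growth is halved. TGI marks complete inhibition of growth.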 Where a SMILES comes first, the peptide text is derived from it.

Assays:
Assay in all cases: DTP human tumour cell line panel, 48 h
[1] = test system: OVCAR-3 ovarian
[2] = test system: SR leukemia
[3] = test system: MALME-3M melanoma
[4] = test system: KM12 colon
[5] = test system: HCT-116 colon
[6] = test system: MOLT-4 leukemia
[7] = test system: SN12C renal
[8] = test system: RPMI-8226 leukemia
[9] = test system: OVCAR-4 ovarian
[10] = test system: OVCAR-8 ovarian

| Structure (SMILES) | TGI [1] | TGI [2] [µM] | TGI [3] | TGI [4] [µM] | TGI [5] [µM] | TGI [6] | TGI [7] [µM] | TGI [8] | TGI [9] | TGI [10] [µM] | GI50 [1] [µM] | GI50 [2] [µM] | GI50 [4] [µM] | GI50 [5] [µM] | GI50 [6] [µM] | GI50 [7] [µM] | GI50 [8] [µM] | GI50 [9] [µM] | GI50 [10] [µM] | GI50 [3] [µM] |
| --- | --- | --- | --- | --- | --- | --- | --- | --- | --- | --- | --- | --- | --- | --- | --- | --- | --- | --- | --- | --- |
| COc1ccc(C(c2ccc(C(C)C)cc(=O)c2O)c2ccc3cccnc3c2O)cc1 (stereo not given) | 4.95 µM | 15.9 | 17.5 µM | 18.7 | 12.8 | > 100 µM | 9.48 | 23.6 µM | 23.9 µM | 12.7 |  |  |  |  |  |  |  |  |  |  |
| CC(C)CC(NC(=O)C(CC(C)C)NC(=O)C(Cc1cnc[nH]1)NC(=O)C(C)NC(=O)C(NC(=O)C(C)NC(=O)C(Cc1c[nH]c2ccccc12)NC(=O)C(CCC(=O)O)NC(=O)C(N)Cc1ccccc1)C(C)C)C(N)=O (stereo not given) (H-FEWAVAHLL-NH2; configuration not given here) | > 100 µM | > 100 | > 12.5 µM | > 100 | > 100 | > 100 µM | > 100 | > 100 µM | > 100 µM | > 100 | > 100 | > 100 | > 100 | > 100 | > 100 | > 100 | > 100 | > 100 | > 100 |  |
| COc1cc(/C=C2\CN(C)C/C(=C\c3cc(OC)c(OC)c(OC)c3)C2=O)cc(OC)c1OC | 0.892 µM | 1.41 | 0.435 µM | 0.394 | 0.335 | 4.5 µM | 0.833 | 0.841 µM | 1.95 µM | 75.7 | 0.328 | 0.24 | 0.195 | 0.154 | 0.323 | 0.267 | 0.266 | 0.342 | 0.312 | 0.209 |
| ClC1CCC2OOC1O2 (stereo not given) | > 100 µM | > 100 | > 100 µM | > 100 | > 100 | > 100 µM | > 100 | > 100 µM | > 100 µM | > 100 |  |  |  |  |  |  |  |  |  |  |
| CC(=O)NC(CCCCNC(=O)N(CCCl)N=O)C(=O)NCc1ccccc1 (stereo not given) | > 100 µM | > 100 | > 100 µM | > 100 | > 100 | > 100 µM | > 100 | > 100 µM | > 100 µM | > 100 |  |  |  |  |  |  |  |  |  |  |
| CCOC(=O)c1ccc(N(CCOS(C)(=O)=O)CCOS(C)(=O)=O)cc1C | 44 µM | > 100 | > 100 µM | > 100 | > 100 | > 100 µM | > 100 | > 100 µM | 46.8 µM | > 100 | 18.8 | 2.83 | 90.4 | 33.4 | 7.01 | 24.7 | 22.2 | 20.9 | 44 | 29 |
| CN[C@]12CC3(C=CC(=O)C=C3)O[C@@]1(Cc1ccc(OC)cc1)N(C)C(=O)N2 | 4.14 µM | 20.1 | 7.85 µM | 3.54 | 7.98 | 9.88 µM | 7.13 | 3.32 µM | 19.1 µM | 21.3 | 0.793 | 1.15 | 1.69 | 0.812 | 2.8 | 1.7 | 1.63 | 3.89 | 2.53 | 2.69 |
| COc1cc2nc(Sc3c([N+](=O)[O-])ncn3C)[nH]c2cc1OC | > 100 µM | 60.2 | > 100 µM | > 100 | > 100 | 44.4 µM | 41.5 | > 100 µM | > 100 µM | 58 |  |  |  |  |  |  |  |  |  |  |
| COC(=O)C(C)NP(=O)(OCc1ccc(Cn2cnc3c(=O)[nH]c(N)nc32)cc1)Oc1ccccc1 (stereo not given) | > 100 µM | > 100 | > 100 µM | > 100 | > 100 | > 100 µM | > 100 | > 100 µM | > 100 µM | > 100 | > 100 | > 100 | > 100 | > 100 | > 100 | > 100 | > 100 | > 100 | > 100 | > 100 |
| O=C1OCc2c1cc(F)cc2[N+](=O)[O-] | > 100 µM | > 100 | 69.6 µM | > 100 | > 100 | > 100 µM | > 100 | > 100 µM | > 100 µM | > 100 | > 100 | > 100 | > 100 | > 100 | > 100 | > 100 | > 100 | > 100 | > 100 | 26.8 |
| COc1cc(/C=C/C(=O)c2ccc(Nc3ncnc4ccccc34)cc2)cc(OC)c1 | 13.5 µM | 3.17 | > 100 µM | 5.38 | 1.17 | 17.1 µM | 38 | 0.715 µM | 25.2 µM | 17.1 | 4 | 0.556 | 1.77 | 0.346 | 2.4 | 7.3 | 0.227 | 4.28 | 3.68 | 23.8 |
| COc1cc2ccc3c4c(OC)cc(OC)c(OC)c4c(=O)n(C)c3c2cc1OC | 7.02 µM and > 40.5 µM | 2.97 | 16.7 µM and > 49.6 µM | 2.57 |  | 10.2 µM and 3.79 µM |  | 2.15 µM and 1.65 µM | 8.32 µM and > 45.8 µM |  | 0.755 |  | 0.548 | 0.455 | 0.591 | 0.532 | 0.245 | 2.67 | 0.451 | 13.4 |
| COc1ccc2c(c1)CCc1c(-c3noc4c3CCc3cc(OC)ccc3-4)noc1-2 | > 100 µM | > 100 | > 100 µM | > 100 | > 100 | > 100 µM | > 100 | > 100 µM | > 100 µM | > 100 |  |  |  |  |  |  |  |  |  |  |
| COc1ccc(NC(=O)C(=O)C2CNC(=O)NC2=O)c(OC)c1 (stereo not given) | > 100 µM | > 100 | > 100 µM | > 100 | > 100 | > 100 µM | > 100 | > 100 µM | > 100 µM | > 100 |  |  |  |  |  |  |  |  |  |  |
| COc1cc(C#N)cc(OC)c1OCCOCCOc1c(OC)cc(C#N)cc1OC | > 100 µM | > 100 | > 100 µM | > 100 | > 100 | > 100 µM | > 100 | > 100 µM | > 100 µM | > 100 | > 100 | 4.33 | 51.7 | > 100 | 21.3 | > 100 | 29.9 | 73.5 | 51.3 | 58.1 |
